Measurements: ChEMBL document CHEMBL4811307, “Design, synthesis and biological evaluation of dual Bcl-2/Mcl-1 inhibitors bearing 2-(1H-indol-4-yl)benzoic acid scaffold” (Bioorg Med Chem Lett, 2021)

Columns and labels:
Bcl-2-like protein 1 = Bcl-2-like protein 1 (Homo sapiens, UniProt Q07817); assay: Binding affinity to Bc1-xL (unknown origin) by fluorescence polarization competition assay
[1] = biological target: Induced myeloid leukemia cell differentiation protein Mcl-1 (Homo sapiens, UniProt Q07820); assay: Binding affinity to Mc1-1 (unknown origin) by fluorescence polarization competition assay
Induced myeloid leukemia cell differentiation protein Mcl-1, sequence (Q07820 whole entry): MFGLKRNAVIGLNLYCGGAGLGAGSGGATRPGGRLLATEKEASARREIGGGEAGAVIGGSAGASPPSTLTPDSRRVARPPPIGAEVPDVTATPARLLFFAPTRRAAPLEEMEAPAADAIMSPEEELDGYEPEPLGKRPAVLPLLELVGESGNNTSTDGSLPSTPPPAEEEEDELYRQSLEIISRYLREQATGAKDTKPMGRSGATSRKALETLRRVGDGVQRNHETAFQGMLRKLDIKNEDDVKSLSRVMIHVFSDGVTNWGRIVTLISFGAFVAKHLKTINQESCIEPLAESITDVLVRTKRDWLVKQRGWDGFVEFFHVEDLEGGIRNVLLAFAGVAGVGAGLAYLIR

Bcl-2-like protein 1, sequence (Q07817 whole entry): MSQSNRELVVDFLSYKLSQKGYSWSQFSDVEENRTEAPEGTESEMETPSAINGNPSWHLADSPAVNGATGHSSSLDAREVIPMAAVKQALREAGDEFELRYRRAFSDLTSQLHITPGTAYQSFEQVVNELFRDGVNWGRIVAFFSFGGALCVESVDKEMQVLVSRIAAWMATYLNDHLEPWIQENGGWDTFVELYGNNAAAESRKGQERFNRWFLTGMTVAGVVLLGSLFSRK

Compound	Ki (Bcl-2-like protein 1; read-out: Ki) [µM]	Ki [1] [µM]	Ki (Bcl-2-like protein 1)
Cc1ccc(-c2cn(Cc3cccc4ccccc34)c3cccc(-c4ccccc4C(=O)O)c23)cc1	> 200	0.23	–
O=C(O)c1ccccc1-c1cccc2c1ccn2CCCOc1cccc2ccccc12	–	1.19	Not Active
O=C(O)c1ccc(Cl)cc1-c1cccc2c1ccn2CCCOc1cccc2ccccc12	2.3	0.22	–
Cc1ccccc1-c1cn(Cc2cccc3ccccc23)c2cccc(-c3ccccc3C(=O)O)c12	> 200	0.07	–
O=C(O)c1ccccc1-c1cccc2c1c(-c1ccccc1)cn2Cc1cccc2ccccc12	> 200	0.12	–
O=C(O)c1ccccc1-c1cccc2c1c(-c1cccc(Cl)c1)cn2Cc1cccc2ccccc12	> 200	0.45	–
COc1ccccc1-c1cn(Cc2cccc3ccccc23)c2cccc(-c3ccccc3C(=O)O)c12	> 200	0.27	–
O=C(O)c1ccccc1-c1cccc2c1c(-c1cccc(C(F)(F)F)c1)cn2Cc1cccc2ccccc12	> 200	0.19	–
Cc1cc2c(C(C)C)c(O)c(O)c(C=O)c2c(O)c1-c1c(C)cc2c(C(C)C)c(O)c(O)c(C=O)c2c1O [GOSSYPOL]	0.61	–	–
CC1(C)CCC(CN2CCN(c3ccc(C(=O)NS(=O)(=O)c4ccc(NCC5CCOCC5)c([N+](=O)[O-])c4)c(Oc4cnc5[nH]ccc5c4)c3)CC2)=C(c2ccc(Cl)cc2)C1 [VENETOCLAX]	–	> 200	–

Next, values leading:

Ki (Bcl-2-like protein 1; read-out: Ki) [µM]	Ki [1] [µM]	Ki (Bcl-2-like protein 1)	Compound
> 200	0.29	–	COc1cccc(-c2cn(Cc3cccc4ccccc34)c3cccc(-c4ccccc4C(=O)O)c23)c1
> 200	0.27	–	CCc1ccccc1-c1cn(CCOc2cccc3ccccc23)c2cccc(-c3ccccc3C(=O)O)c12
> 200	0.17	–	COc1ccccc1-c1cn(CCOc2cccc3ccccc23)c2cccc(-c3ccccc3C(=O)O)c12
> 200	0.71	–	Cc1cccc(-c2cn(CCOc3cccc4ccccc34)c3cccc(-c4ccccc4C(=O)O)c23)c1C
> 200	1.33	–	Cc1cccc(-c2cn(CCCOc3cccc4ccccc34)c3cccc(-c4ccccc4C(=O)O)c23)c1
> 200	0.17	–	Cc1ccccc1-c1cn(CCOc2cccc3ccccc23)c2cccc(-c3ccccc3C(=O)O)c12
> 200	0.96	–	Cc1cccc(-c2cn(Cc3cccc4ccccc34)c3cccc(-c4ccccc4C(=O)O)c23)c1
2.3	0.36	–	O=C(O)c1ccccc1-c1cccc2c1c(-c1cccc(Cl)c1)cn2CCOc1cccc2ccccc12
> 200	0.92	–	Cc1cccc(-c2cn(CCOc3cccc4ccccc34)c3cccc(-c4ccccc4C(=O)O)c23)c1
6.1	0.03	–	O=C(O)c1ccccc1-c1cccc2c1c(-c1cccc(C(F)(F)F)c1)cn2CCOc1cccc2ccccc12
> 200	0.17	–	CC(C)c1ccccc1-c1cn(CCOc2cccc3ccccc23)c2cccc(-c3ccccc3C(=O)O)c12
> 200	0.25	–	Cc1ccc(-c2cn(CCOc3cccc4ccccc34)c3cccc(-c4ccccc4C(=O)O)c23)cc1
3.1	0.28	–	O=C(O)c1ccccc1-c1cccc2c1c(-c1cccc(C(F)(F)F)c1)cn2CCCOc1cccc2ccccc12
